Data taken from patent US7553864B2, “Compounds for the treatment of inflammatory disorders and microbial diseases” (Schering Corporation, priority 2005, dated 2009).

What follows are compounds tested on LpxC enzyme (assay: LpxC enzyme assay (RapidFire high-throughput mass spectrometry)). Conditions: concentration 0.10 (unit not given).
Type: biochemical
Protocol: The standard LpxC assay consists of 0.2 nM LpxC enzyme, 1.0 μM UDP-3-O—(R-3-hydroxymyristoyl)-N-acetylglucosamine, and test compound, in assay buffer and 2% DMSO. Assay buffer is comprised of 25 mM HEPES, pH 7.3, 150 mM NaCl, 2.0 mM DTT, and 0.01% BSA. The enzyme reaction is carried out in a 96-well assay plate, in a final volume of 102 μL. Solutions of test compounds are prepared in 100% DMSO. Reaction additions, in order, are (1) 2.0 μL compound solution, (2) 80 μL of assay buffer, (3) 10 μL of 10 μM UDP-3-O—(R-3-hydroxymyristoyl)-N-acetylglucosamine (in assay buffer) and, (4) 10 μL of LpxC enzyme (20 nM in assay buffer) to initiate the reaction. In positive control reactions, addition (1) has 2.0 μL of 100% DMSO (without compound); these reactions are used as the total signal (TSB) value. Reactions are incubated at room temperature for 60 minutes when 10 μL of 1 N HCl is added to stop the reaction. The plate is shaken by hand for 10 seconds to ensure complete quenching. Assay plates are sealed with foil tape, and stored at −80° C. for 24-48 hr prior to analysis.
The concentrations of substrate and product in the reaction mixtures are determined with BioTrove's proprietary RapidFire™ high-throughput mass spectrometry (HTMS). Assay mixtures are partially purified with reverse phase chromatography, where they are washed with water containing 5 mM ammonium formate and eluted onto the mass spectrometer in 80% acetonitrile, 20% water, and 5 mM ammonium formate. The mass spectrometry peak areas of the substrate and product are measured to determine the concentration of these analytes. The assay signal is the percentage of substrate that is converted to product. Percent inhibition, % I, in test samples is determined from the following equation: […]

Q: Which “LpxC enzyme assay rating (% inhibition at indicated concentrations)” value does the source give for `CNC(=O)[C@H](O)[C@@H](O)C(=O)N1CCN(c2ccc(-c3ccccc3)cc2)CC1` [Compound 30] here?
A: C (less than 10% inhibition)

Q: Which “LpxC enzyme assay rating (% inhibition at indicated concentrations)” value does the source give for `CNC(=O)[C@H](O)[C@@H](O)C(=O)N1CCN(c2cccc(-c3ccccc3)c2)CC1` [Compound 31] here?
A: C (less than 10% inhibition)

Q: For `CCCCc1ccc(NC(=O)[C@H](O)[C@@H](O)C(=O)NC)cc1` [Compound 32], which “LpxC enzyme assay rating (% inhibition at indicated concentrations)” value is on record?
A: B (10-30% inhibition)

Q: How did the “LpxC enzyme assay rating (% inhibition at indicated concentrations)” value turn out when `CCCc1ccc(NC(=O)[C@H](O)[C@@H](O)C(=O)NC)cc1` [Compound 33] was run?
A: C (less than 10% inhibition)

Q: For `CCC(C)c1ccc(NC(=O)[C@H](O)[C@@H](O)C(=O)NC)cc1` (some centres unmarked) [Compound 34], which “LpxC enzyme assay rating (% inhibition at indicated concentrations)” value is on record?
A: C (less than 10% inhibition)

Same assay, conditions: concentration 0.20 (unit not given)

Q: Which “LpxC enzyme assay rating (% inhibition at indicated concentrations)” value does the source give for `CNC(=O)[C@H](O)[C@@H](O)C(=O)N1CCN(c2ccc(-c3ccccc3)cc2)CC1` [Compound 30] here?
A: B (10-30% inhibition)

Q: Which “LpxC enzyme assay rating (% inhibition at indicated concentrations)” value does the source give for `CNC(=O)[C@H](O)[C@@H](O)C(=O)N1CCN(c2cccc(-c3ccccc3)c2)CC1` [Compound 31] here?
A: B (10-30% inhibition)

Q: How did the “LpxC enzyme assay rating (% inhibition at indicated concentrations)” value turn out when `CCCCc1ccc(NC(=O)[C@H](O)[C@@H](O)C(=O)NC)cc1` [Compound 32] was run?
A: B (10-30% inhibition)

Q: `CCCc1ccc(NC(=O)[C@H](O)[C@@H](O)C(=O)NC)cc1` [Compound 33] was tested. Which “LpxC enzyme assay rating (% inhibition at indicated concentrations)” value did it give?
A: C (less than 10% inhibition)

Q: How did the “LpxC enzyme assay rating (% inhibition at indicated concentrations)” value turn out when `CCC(C)c1ccc(NC(=O)[C@H](O)[C@@H](O)C(=O)NC)cc1` (some centres unmarked) [Compound 34] was run?
A: B (10-30% inhibition)

Same assay, conditions: concentration 0.39 (unit not given)

Q: Which “LpxC enzyme assay rating (% inhibition at indicated concentrations)” value does the source give for `CNC(=O)[C@H](O)[C@@H](O)C(=O)N1CCN(c2ccc(-c3ccccc3)cc2)CC1` [Compound 30] here?
A: B (10-30% inhibition)

Q: How did the “LpxC enzyme assay rating (% inhibition at indicated concentrations)” value turn out when `CNC(=O)[C@H](O)[C@@H](O)C(=O)N1CCN(c2cccc(-c3ccccc3)c2)CC1` [Compound 31] was run?
A: C (less than 10% inhibition)

Q: Which “LpxC enzyme assay rating (% inhibition at indicated concentrations)” value does the source give for `CCCCc1ccc(NC(=O)[C@H](O)[C@@H](O)C(=O)NC)cc1` [Compound 32] here?
A: B (10-30% inhibition)

Q: For `CCCc1ccc(NC(=O)[C@H](O)[C@@H](O)C(=O)NC)cc1` [Compound 33], which “LpxC enzyme assay rating (% inhibition at indicated concentrations)” value is on record?
A: C (less than 10% inhibition)

Q: `CCC(C)c1ccc(NC(=O)[C@H](O)[C@@H](O)C(=O)NC)cc1` (some centres unmarked) [Compound 34] was tested. Which “LpxC enzyme assay rating (% inhibition at indicated concentrations)” value did it give?
A: C (less than 10% inhibition)

Same assay, conditions: concentration 0.78 (unit not given)

Q: `CNC(=O)[C@H](O)[C@@H](O)C(=O)N1CCN(c2ccc(-c3ccccc3)cc2)CC1` [Compound 30] was tested. Which “LpxC enzyme assay rating (% inhibition at indicated concentrations)” value did it give?
A: C (less than 10% inhibition)

Q: For `CNC(=O)[C@H](O)[C@@H](O)C(=O)N1CCN(c2cccc(-c3ccccc3)c2)CC1` [Compound 31], which “LpxC enzyme assay rating (% inhibition at indicated concentrations)” value is on record?
A: B (10-30% inhibition)

Q: With `CCCCc1ccc(NC(=O)[C@H](O)[C@@H](O)C(=O)NC)cc1` [Compound 32] as the compound, how does the “LpxC enzyme assay rating (% inhibition at indicated concentrations)” value read?
A: B (10-30% inhibition)

Q: Which “LpxC enzyme assay rating (% inhibition at indicated concentrations)” value does the source give for `CCCc1ccc(NC(=O)[C@H](O)[C@@H](O)C(=O)NC)cc1` [Compound 33] here?
A: C (less than 10% inhibition)

Q: `CCC(C)c1ccc(NC(=O)[C@H](O)[C@@H](O)C(=O)NC)cc1` (some centres unmarked) [Compound 34] was tested. Which “LpxC enzyme assay rating (% inhibition at indicated concentrations)” value did it give?
A: B (10-30% inhibition)

Same assay, conditions: concentration 1.56 (unit not given)

Q: For `CNC(=O)[C@H](O)[C@@H](O)C(=O)N1CCN(c2ccc(-c3ccccc3)cc2)CC1` [Compound 30], which “LpxC enzyme assay rating (% inhibition at indicated concentrations)” value is on record?
A: C (less than 10% inhibition)

Q: `CNC(=O)[C@H](O)[C@@H](O)C(=O)N1CCN(c2cccc(-c3ccccc3)c2)CC1` [Compound 31] was tested. Which “LpxC enzyme assay rating (% inhibition at indicated concentrations)” value did it give?
A: B (10-30% inhibition)

Q: How did the “LpxC enzyme assay rating (% inhibition at indicated concentrations)” value turn out when `CCCCc1ccc(NC(=O)[C@H](O)[C@@H](O)C(=O)NC)cc1` [Compound 32] was run?
A: C (less than 10% inhibition)

Q: For `CCCc1ccc(NC(=O)[C@H](O)[C@@H](O)C(=O)NC)cc1` [Compound 33], which “LpxC enzyme assay rating (% inhibition at indicated concentrations)” value is on record?
A: B (10-30% inhibition)

Q: Which “LpxC enzyme assay rating (% inhibition at indicated concentrations)” value does the source give for `CCC(C)c1ccc(NC(=O)[C@H](O)[C@@H](O)C(=O)NC)cc1` (some centres unmarked) [Compound 34] here?
A: B (10-30% inhibition)

Same assay, conditions: concentration 3.13 (unit not given)

Q: Which “LpxC enzyme assay rating (% inhibition at indicated concentrations)” value does the source give for `CNC(=O)[C@H](O)[C@@H](O)C(=O)N1CCN(c2ccc(-c3ccccc3)cc2)CC1` [Compound 30] here?
A: B (10-30% inhibition)

Q: For `CNC(=O)[C@H](O)[C@@H](O)C(=O)N1CCN(c2cccc(-c3ccccc3)c2)CC1` [Compound 31], which “LpxC enzyme assay rating (% inhibition at indicated concentrations)” value is on record?
A: B (10-30% inhibition)

Q: Which “LpxC enzyme assay rating (% inhibition at indicated concentrations)” value does the source give for `CCCCc1ccc(NC(=O)[C@H](O)[C@@H](O)C(=O)NC)cc1` [Compound 32] here?
A: B (10-30% inhibition)

Q: For `CCCc1ccc(NC(=O)[C@H](O)[C@@H](O)C(=O)NC)cc1` [Compound 33], which “LpxC enzyme assay rating (% inhibition at indicated concentrations)” value is on record?
A: B (10-30% inhibition)

Q: `CCC(C)c1ccc(NC(=O)[C@H](O)[C@@H](O)C(=O)NC)cc1` (some centres unmarked) [Compound 34] was tested. Which “LpxC enzyme assay rating (% inhibition at indicated concentrations)” value did it give?
A: C (less than 10% inhibition)

Same assay, conditions: concentration 6.25 (unit not given)

Q: For `CNC(=O)[C@H](O)[C@@H](O)C(=O)N1CCN(c2ccc(-c3ccccc3)cc2)CC1` [Compound 30], which “LpxC enzyme assay rating (% inhibition at indicated concentrations)” value is on record?
A: B (10-30% inhibition)

Q: `CNC(=O)[C@H](O)[C@@H](O)C(=O)N1CCN(c2cccc(-c3ccccc3)c2)CC1` [Compound 31] was tested. Which “LpxC enzyme assay rating (% inhibition at indicated concentrations)” value did it give?
A: C (less than 10% inhibition)

Q: Which “LpxC enzyme assay rating (% inhibition at indicated concentrations)” value does the source give for `CCCCc1ccc(NC(=O)[C@H](O)[C@@H](O)C(=O)NC)cc1` [Compound 32] here?
A: C (less than 10% inhibition)

Q: `CCCc1ccc(NC(=O)[C@H](O)[C@@H](O)C(=O)NC)cc1` [Compound 33] was tested. Which “LpxC enzyme assay rating (% inhibition at indicated concentrations)” value did it give?
A: B (10-30% inhibition)

Q: Which “LpxC enzyme assay rating (% inhibition at indicated concentrations)” value does the source give for `CCC(C)c1ccc(NC(=O)[C@H](O)[C@@H](O)C(=O)NC)cc1` (some centres unmarked) [Compound 34] here?
A: B (10-30% inhibition)

Same assay, conditions: concentration 12.50 (unit not given)

Q: With `CNC(=O)[C@H](O)[C@@H](O)C(=O)N1CCN(c2ccc(-c3ccccc3)cc2)CC1` [Compound 30] as the compound, how does the “LpxC enzyme assay rating (% inhibition at indicated concentrations)” value read?
A: B (10-30% inhibition)

Q: With `CNC(=O)[C@H](O)[C@@H](O)C(=O)N1CCN(c2cccc(-c3ccccc3)c2)CC1` [Compound 31] as the compound, how does the “LpxC enzyme assay rating (% inhibition at indicated concentrations)” value read?
A: B (10-30% inhibition)

Q: How did the “LpxC enzyme assay rating (% inhibition at indicated concentrations)” value turn out when `CCCCc1ccc(NC(=O)[C@H](O)[C@@H](O)C(=O)NC)cc1` [Compound 32] was run?
A: B (10-30% inhibition)

Q: `CCCc1ccc(NC(=O)[C@H](O)[C@@H](O)C(=O)NC)cc1` [Compound 33] was tested. Which “LpxC enzyme assay rating (% inhibition at indicated concentrations)” value did it give?
A: C (less than 10% inhibition)

Q: Which “LpxC enzyme assay rating (% inhibition at indicated concentrations)” value does the source give for `CCC(C)c1ccc(NC(=O)[C@H](O)[C@@H](O)C(=O)NC)cc1` (some centres unmarked) [Compound 34] here?
A: C (less than 10% inhibition)

Same assay, conditions: concentration 25 (unit not given)

Q: `CNC(=O)[C@H](O)[C@@H](O)C(=O)N1CCN(c2ccc(-c3ccccc3)cc2)CC1` [Compound 30] was tested. Which “LpxC enzyme assay rating (% inhibition at indicated concentrations)” value did it give?
A: B (10-30% inhibition)

Q: How did the “LpxC enzyme assay rating (% inhibition at indicated concentrations)” value turn out when `CNC(=O)[C@H](O)[C@@H](O)C(=O)N1CCN(c2cccc(-c3ccccc3)c2)CC1` [Compound 31] was run?
A: B (10-30% inhibition)

Q: How did the “LpxC enzyme assay rating (% inhibition at indicated concentrations)” value turn out when `CCCCc1ccc(NC(=O)[C@H](O)[C@@H](O)C(=O)NC)cc1` [Compound 32] was run?
A: B (10-30% inhibition)

Q: For `CCCc1ccc(NC(=O)[C@H](O)[C@@H](O)C(=O)NC)cc1` [Compound 33], which “LpxC enzyme assay rating (% inhibition at indicated concentrations)” value is on record?
A: C (less than 10% inhibition)

Q: How did the “LpxC enzyme assay rating (% inhibition at indicated concentrations)” value turn out when `CCC(C)c1ccc(NC(=O)[C@H](O)[C@@H](O)C(=O)NC)cc1` (some centres unmarked) [Compound 34] was run?
A: B (10-30% inhibition)

Same assay, conditions: concentration 50 (unit not given)

Q: With `CNC(=O)[C@H](O)[C@@H](O)C(=O)N1CCN(c2ccc(-c3ccccc3)cc2)CC1` [Compound 30] as the compound, how does the “LpxC enzyme assay rating (% inhibition at indicated concentrations)” value read?
A: A (greater than 30% inhibition)

Q: For `CNC(=O)[C@H](O)[C@@H](O)C(=O)N1CCN(c2cccc(-c3ccccc3)c2)CC1` [Compound 31], which “LpxC enzyme assay rating (% inhibition at indicated concentrations)” value is on record?
A: B (10-30% inhibition)

Q: How did the “LpxC enzyme assay rating (% inhibition at indicated concentrations)” value turn out when `CCCCc1ccc(NC(=O)[C@H](O)[C@@H](O)C(=O)NC)cc1` [Compound 32] was run?
A: B (10-30% inhibition)

Q: How did the “LpxC enzyme assay rating (% inhibition at indicated concentrations)” value turn out when `CCCc1ccc(NC(=O)[C@H](O)[C@@H](O)C(=O)NC)cc1` [Compound 33] was run?
A: C (less than 10% inhibition)

Q: `CCC(C)c1ccc(NC(=O)[C@H](O)[C@@H](O)C(=O)NC)cc1` (some centres unmarked) [Compound 34] was tested. Which “LpxC enzyme assay rating (% inhibition at indicated concentrations)” value did it give?
A: B (10-30% inhibition)
